Measured values reported in patent US9480677B2, “Enantiomers of spiro-oxindole compounds and their uses as therapeutic agents” (Xenon Pharmaceuticals Inc., priority 2009, dated 2016).
≈ marks a conversion by molar mass, not a printed value.

How the values were obtained:
[1] = Solubility in pharmaceutically acceptable excipients; type: physicochemical
From the text: Thus, the (S)-enantiomer can be formulated in a fewer number of dosage units than the racemate. This property facilitates dosing patients at a higher level if needed to achieve efficacy.

[2] = test system: histamine-induced pruritis; test: Histamine-induced pruritis in vivo assay; set-up: species or system male ICR mice; settings: scored over 40 minutes
Description: Histamine induces pruritis (itching) in humans. Accordingly, this assay evaluates the efficacy of topically and orally administered (S)-enantiomer of the invention on histamine-induced pruritis in male ICR mice. […] One day prior to testing, the scapular regions on the animals were shaved with hair clippers. On the testing day, the animals were habituated for 60 minutes in the test chamber comprising of a clear plastic tube placed vertically on a flat surface. After the habituation period, the animals were removed from the plastic tube, placed in a restrainer, and injected with histamine at the shaved scapular region. The injections were made intradermally into the skin in small injection volumes (10 μL) using a Hamilton syringe. […] Immediately after the injections, the animals were returned to the test chambers and observed by cameras placed above the test chambers for a total of 50 minutes. The cameras were connected to a computer where digital video files were created, saved, and analyzed. The number of itching bouts was scored over 40 minutes. An “itching bout” was defined as the lifting of a hind leg, using it to scratch the scapular region, and then placing it back on the ground. […] The data were analyzed using GraphPad Prism 5 statistical analysis software and an unpaired t-test was used for univariate analysis. Results are expressed as mean±SEM. […]

[3] = Phase 1 clinical trial of topical ointment: systemic pharmacokinetics; type: in vivo, human
[4] = test system: local skin toxicity/irritancy
hNav1.7 [5] = molecular target: T1, hNav1.7 (Homo sapiens, UniProt Q15858); test: cell-based
T1 sequence (Q15858 whole entry): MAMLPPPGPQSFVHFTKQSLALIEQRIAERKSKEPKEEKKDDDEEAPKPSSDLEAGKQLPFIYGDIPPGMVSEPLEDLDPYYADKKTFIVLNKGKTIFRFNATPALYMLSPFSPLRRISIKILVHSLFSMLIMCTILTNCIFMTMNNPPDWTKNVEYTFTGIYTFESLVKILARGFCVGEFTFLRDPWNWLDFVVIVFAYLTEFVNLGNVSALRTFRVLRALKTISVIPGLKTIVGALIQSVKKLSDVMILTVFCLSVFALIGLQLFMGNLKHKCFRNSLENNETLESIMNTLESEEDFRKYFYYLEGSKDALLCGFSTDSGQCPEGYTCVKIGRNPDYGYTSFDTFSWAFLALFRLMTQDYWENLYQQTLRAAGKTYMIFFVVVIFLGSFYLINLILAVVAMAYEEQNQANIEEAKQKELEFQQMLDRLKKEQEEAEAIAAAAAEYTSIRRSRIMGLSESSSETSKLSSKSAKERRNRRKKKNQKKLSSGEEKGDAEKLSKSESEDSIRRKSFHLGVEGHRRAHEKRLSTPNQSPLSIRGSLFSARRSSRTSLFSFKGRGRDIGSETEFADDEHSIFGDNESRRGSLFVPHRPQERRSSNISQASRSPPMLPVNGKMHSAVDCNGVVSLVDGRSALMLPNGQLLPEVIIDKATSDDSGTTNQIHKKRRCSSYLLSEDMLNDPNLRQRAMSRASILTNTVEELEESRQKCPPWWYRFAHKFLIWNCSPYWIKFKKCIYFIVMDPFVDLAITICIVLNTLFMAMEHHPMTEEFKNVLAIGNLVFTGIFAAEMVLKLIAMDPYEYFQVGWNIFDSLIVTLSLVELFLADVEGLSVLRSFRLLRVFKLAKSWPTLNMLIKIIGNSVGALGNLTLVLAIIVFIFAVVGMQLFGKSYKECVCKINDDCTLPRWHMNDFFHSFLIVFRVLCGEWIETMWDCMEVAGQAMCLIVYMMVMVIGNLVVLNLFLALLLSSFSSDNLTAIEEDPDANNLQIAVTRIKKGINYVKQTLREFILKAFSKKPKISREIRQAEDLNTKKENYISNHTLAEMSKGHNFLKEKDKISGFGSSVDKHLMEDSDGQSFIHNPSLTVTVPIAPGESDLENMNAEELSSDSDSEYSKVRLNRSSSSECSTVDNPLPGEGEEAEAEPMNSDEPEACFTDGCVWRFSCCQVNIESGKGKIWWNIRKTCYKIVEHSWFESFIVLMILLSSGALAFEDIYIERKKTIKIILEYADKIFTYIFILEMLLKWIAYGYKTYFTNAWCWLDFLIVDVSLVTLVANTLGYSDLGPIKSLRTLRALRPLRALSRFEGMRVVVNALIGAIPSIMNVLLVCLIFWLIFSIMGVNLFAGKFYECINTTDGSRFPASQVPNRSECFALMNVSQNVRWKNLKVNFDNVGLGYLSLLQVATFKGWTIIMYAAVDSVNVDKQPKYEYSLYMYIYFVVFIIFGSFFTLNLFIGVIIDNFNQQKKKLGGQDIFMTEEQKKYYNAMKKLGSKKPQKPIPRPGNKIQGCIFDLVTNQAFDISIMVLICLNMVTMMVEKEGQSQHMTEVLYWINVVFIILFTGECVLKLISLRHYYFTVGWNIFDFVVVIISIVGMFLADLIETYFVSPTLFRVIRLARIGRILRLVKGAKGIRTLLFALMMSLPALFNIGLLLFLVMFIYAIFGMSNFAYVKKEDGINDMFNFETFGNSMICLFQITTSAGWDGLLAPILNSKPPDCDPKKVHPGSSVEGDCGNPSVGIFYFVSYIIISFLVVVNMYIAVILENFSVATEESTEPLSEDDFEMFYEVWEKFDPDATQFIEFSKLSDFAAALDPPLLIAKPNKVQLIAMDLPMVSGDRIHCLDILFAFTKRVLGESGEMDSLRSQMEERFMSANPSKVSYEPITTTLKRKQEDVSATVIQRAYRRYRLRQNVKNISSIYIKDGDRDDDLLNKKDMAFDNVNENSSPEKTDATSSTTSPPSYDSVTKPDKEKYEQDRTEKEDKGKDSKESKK

hNav1.7 [6] = molecular target: T1, hNav1.7; test: Electrophysiological assay, whole cell voltage clamp; type: cell-based; set-up: expressed in transfected cells; host or cells: HEK293
Description: HEK293 Cells expressing hNav1.7 were cultured in DMEM growth media (Gibco) with 0.5 mg/mL G418, +/−1% PSG, and 10% heat-inactivated fetal bovine serum at 37° C. and 5% CO2. For electrophysiological recordings, cells were plated on 10 mm dishes.
Whole cell recordings were examined by established methods of whole cell voltage clamp (Bean et al., op. cit.) using an Axopatch 200B amplifier and Clampex software (Axon Instruments, Union City, Calif.). All experiments were performed at ambient temperature. Electrodes were fire-polished to resistances of 2-4 Mohms Voltage errors and capacitance artifacts were minimized by series resistance compensation and capacitance compensation, respectively. Data were acquired at 40 kHz and filtered at 5 kHz. The external (bath) solution consisted of: NaCl (140 mM), KCl (5 mM), CaCl2 (2 mM), MgCl2 (1 mM), HEPES (10 mM) at pH 7.4. The internal (pipette) solution consisted of (in mM): NaCl (5), CaCl2 (0.1), MgCl2 (2), CsCl (10), CsF (120), HEPES (10), EGTA (10), at pH 7.2.
To estimate the steady-state affinity of compounds for the resting and inactivated state of the channel (Kr and Ki, respectively), 12.5 ms test pulses to depolarizing voltages from −60 to +90 m V from a holding potential of −120 m V was used to construct current-voltage relationships (1-V curves). A voltage near the peak of the IV-curve (−30 to 0 m V) was used as the test pulse throughout the remainder of the experiment. Steady-state inactivation (availability) curves were then constructed by measuring the current activated during a 8.75 ms test pulse following 1 second conditioning pulses to potentials ranging from −120 to −10 mV.
The steady-state voltage-dependence of binding of a compound to a voltage-gated sodium channel was determined by measuring the blockage of the ionic current at two holding potentials. Binding to rested-state channels was determined by using a holding potential of −120 mV, so that maximal availability was achieved. Binding to inactivated-state channels was evaluated at a holding potential such that only about 10% of the channels were available to open. The membrane potential was held at this voltage for at least 10 seconds so that drug binding could equilibrate.
The apparent dissociation constant at each voltage was calculated with the equation:
[formula] where Kd is the dissociation constant (either Kr or Ki), and [Drug] is the concentration of the test compound.

## O=C1N(Cc2ccc(C(F)(F)F)o2)c2ccccc2[C@]12COc1cc3c(cc12)OCO3 [(I-S), (S)-1′-{[5-(trifluoromethyl)furan-2-yl]methyl}spiro[furo[2,3-f][1,3]benzodioxole-7,3′-indol]-2′(1′H)-one]
[1]; Ethanol, organic solvent or mixture
  solubility: 36.4 mg/mL (≈ 84.8 mM)
[1]; PEG 400, organic solvent or mixture
  solubility: > 55 mg/mL
[1]; Propylene glycol, organic solvent or mixture
  solubility: 9.8 mg/mL (≈ 22.8 mM)
[1]; oil or lipid, Capryol ® 90
  solubility: 96 mg/mL (≈ 224 mM)
[1]; oil or lipid, Labrasol ®
  solubility: 231 mg/mL (≈ 538 mM)
[1]; oil or lipid, Labrasol ®/Capryol ® 90 60/40
  solubility: 191 mg/mL (≈ 445 mM)
[1]; organic solvent or mixture, Labrasol ®/PEG 400 60/40
  solubility: 182 mg/mL (≈ 424 mM)
[1]; organic solvent or mixture, Labrasol ®/Transcutol ® 60/40
  solubility: 186 mg/mL (≈ 433 mM)
[1]; organic solvent or mixture, Tween ® 80
  solubility: > 123 mg/mL
[2]; 50 mg of 8% (w/v) topical, n=16, vehicle 134.3±13.31
  total number of itching bouts: 89.00±10.51 itching bouts
[2]; 50 mg/Kg oral gavage, n=8, vehicle 42.88±6.667
  total number of itching bouts: 17.25±6.310 itching bouts
[3]; below LLOQ in most samples (489 out of 546=~90%)
  concentrations in plasma: < 0.1 ng/mL
[3]; human, plasma, Day 22, read-out: highest level observed in plasma in one subject during the dosing period
  concentration at 22 day: 0.994 ng/mL
[4]; 4% and 8% (w/w) ointment daily for 21 days, healthy subjects
  Serious Adverse Events (SAEs) or deaths: No Serious Adverse Events (SAEs) or deaths were reported
[4]; human, in vivo
  cumulative irritation scores versus placebo ointments and negative control (0.9% saline): No difference was observed
  electrocardiography: pulse rate, quiescent resting state, QTc intervals: did not demonstrate clinically significant changes
  severity of Adverse Events (AEs): mild or moderate in severity
  vital signs, physical examinations, laboratory assessments: no clinically significant changes from baseline
[4]; human, in vivo, 21 days
  skin irritation score, maximum: ≤ 3
hNav1.7 [5]
  IC50: 3 nM
hNav1.7 [6]; (S)- versus (R)-enantiomer
  potency in binding to the inactivated-state of hNav1.7 relative to the (R)-enantiomer: about 5 times
hNav1.7 [6]; affinity for the inactivated state of hNav1.7
  Ki: 161 nM
hNav1.7 [6]; affinity for the rested/closed state of hNav1.7, holding potential −120 mV, read-out: Kr
  Kd: > 10000 nM
